Patent publication US10562850B2, “Human plasma kallikrein inhibitors” (priority 2015, dated 2020)

What was measured:
[1] = biological target: human plasma kallikrein (Homo sapiens (Human), UniProt P03952); assay: Plasma Kallikrein Activity Assay (chromogenic substrate S2302); format: biochemical; details: 2 nM kallikrein, 80 μM S2302, 30° C., pH 7.8; Cheng-Prusoff
In short: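 2 nM human plasma kallikrein incubated at 30° C with 80 μM S2302 and increasing compound concentrations in 50 mM Tris-HCl pH 7.8, 200 mM NaCl, 2.5 mM CaCl2. Activity read as absorbance change at 405 nm; four-parameter logistic fit, Ki by Cheng-Prusoff.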

[2] = test system: patients with hereditary angioedema (HAE); details: cited from earlier work
[3] = test system: rat models of arthritis; details: cited from earlier work
[4] = test system: animal model of ischemic stroke; details: cited from earlier work

human plasma kallikrein, sequence (P03952 391-638): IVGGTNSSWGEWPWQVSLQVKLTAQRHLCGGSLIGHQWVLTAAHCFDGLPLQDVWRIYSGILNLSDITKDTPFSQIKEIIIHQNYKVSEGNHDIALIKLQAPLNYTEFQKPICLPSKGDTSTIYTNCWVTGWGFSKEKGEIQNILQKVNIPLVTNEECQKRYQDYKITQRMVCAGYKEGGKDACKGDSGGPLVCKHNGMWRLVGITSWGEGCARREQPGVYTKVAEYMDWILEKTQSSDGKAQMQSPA
human plasma kallikrein, sequence (P03952 20-390 partner): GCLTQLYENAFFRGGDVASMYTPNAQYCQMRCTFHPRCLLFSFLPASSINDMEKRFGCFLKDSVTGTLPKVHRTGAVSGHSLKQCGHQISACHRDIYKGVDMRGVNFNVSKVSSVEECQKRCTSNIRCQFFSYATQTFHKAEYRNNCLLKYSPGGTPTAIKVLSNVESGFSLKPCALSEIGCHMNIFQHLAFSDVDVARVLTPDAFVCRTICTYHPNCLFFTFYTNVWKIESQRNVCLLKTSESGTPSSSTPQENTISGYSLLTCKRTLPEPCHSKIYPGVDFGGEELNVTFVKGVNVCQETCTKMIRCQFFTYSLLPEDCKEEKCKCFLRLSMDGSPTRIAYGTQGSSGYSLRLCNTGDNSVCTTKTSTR

Row | Molecule | Ki [1] [nM] | also measured
1 | CC(C)(C)[S@@+]([O-])NC(CCC1CC1)(c1ccncc1)c1ccc(F)c(NC(=O)[C@H]2C[C@@H](O)CN2C(=O)Nc2ccc(Cl)cc2)c1 (stereo partly drawn) [Compound 68a, (2R,4R)-N1-(4-chlorophenyl)-N2-(5-(3-cyclopropyl-1-((R)-1,1-dimethylethylsulfinamido)-1-(pyridin-4-yl)propyl)-2-fluorophenyl)-4-hydroxypyrrolidine-1,2-dicarboxamide] | < 50 | –
2 | NC(CCC1CC1)(c1ccncc1)c1ccc(F)c(NC(=O)[C@H]2C[C@@H](O)CN2C(=O)Nc2ccc(Cl)cc2)c1 (stereo partly drawn) [Compound 69a, (2R,4R)-N2-(5-((+)-1-amino-3-cyclopropyl-1-(pyridin-4-yl)propyl)-2-fluorophenyl)-N1-(4-chlorophenyl)-4-hydroxypyrrolidine-1,2-dicarboxamide] | < 50 | –
3 | CO[C@@H]1C[C@H](C(=O)Nc2cc(C(N)(CCC3CC3)c3ccncc3)ccc2F)N(C(=O)Nc2ccc(Cl)cn2)C1 (stereo partly drawn) [Compound 70c, (2R,4R)-N2-(5-((+)-1-amino-3-cyclopropyl-1-(pyridin-4-yl)propyl)-2-fluorophenyl)-N1-(5-chloropyridin-2-yl)-4-methoxypyrrolidine-1,2-dicarboxamide] | < 50 | –
4 | CO[C@@H]1C[C@H](C(=O)Nc2cc(C(N)(CCC3CC3)c3ccncc3)ccc2F)N(C(=O)Nc2ccc(Cl)cc2)C1 (stereo partly drawn) [Compound 71a, (2R,4R)-N2-(5-((+)-1-amino-3-cyclopropyl-1-(pyridin-4-yl)propyl)-2-fluorophenyl)-N1-(4-chlorophenyl)-4-methoxypyrrolidine-1,2-dicarboxamide] | < 50 | –
5 | NC(CCC1CC1)(c1ccncc1)c1ccc(F)c(NC(=O)[C@H]2C[C@@H](O)CN2C(=O)Nc2ccc(Cl)cn2)c1 (stereo partly drawn) [Compound 72c, (2R,4R)-N2-(5-((+)-1-amino-3-cyclopropyl-1-(pyridin-4-yl)propyl)-2-fluorophenyl)-N1-(5-chloropyridin-2-yl)-4-hydroxypyrrolidine-1,2-dicarboxamide] | < 50 | –
6 | CO[C@@H]1C[C@H](C(=O)Nc2cc(C(CCC3CC3)(NC(C)=O)c3ccncc3)ccc2F)N(C(=O)Nc2ccc(Cl)cn2)C1 (stereo partly drawn) [Compound 73a, (2R,4R)-N2-(5-((+)-1-acetamido-3-cyclopropyl-1-(pyridin-4-yl)propyl)-2-fluorophenyl)-N1-(5-chloropyridin-2-yl)-4-methoxypyrrolidine-1,2-dicarboxamide] | < 50 | –
7 | CO[C@@H]1C[C@H](C(=O)Nc2cc(C(CCC3CC3)(NS(C)(=O)=O)c3ccncc3)ccc2F)N(C(=O)Nc2ccc(Cl)cn2)C1 (stereo partly drawn) [Compound 74a, (2R,4R)-N1-(5-chloropyridin-2-yl)-N2-(5-((+)-3-cyclopropyl-1-(methylsulfonamido)-1-(pyridin-4-yl)propyl)-2-fluorophenyl)-4-methoxypyrrolidine-1,2-dicarboxamide] | < 50 | –
8 | CO[C@@H]1C[C@H](C(=O)Nc2cccc(C(N)(CCC3CC3)c3ccncc3)c2)N(C(=O)Nc2ccc(Cl)cn2)C1 (stereo partly drawn) [Compound 75e, (2R,4R)-N2-(3-((+)-1-amino-3-cyclopropyl-1-(pyridin-4-yl)propyl)phenyl)-N1-(5-chloropyridin-2-yl)-4-methoxypyrrolidine-1,2-dicarboxamide] | < 50 | –
9 | CO[C@@H]1C[C@H](C(=O)Nc2cc(C(N)(CCC3CC3)c3ccncc3)ccc2F)N(C(=O)Cc2ccc(Cl)cc2)C1 (stereo partly drawn) [Compound 76e, (2R,4R)-N-(5-((+)-1-amino-3-cyclopropyl-1-(pyridin-4-yl)propyl)-2-fluorophenyl)-1-(2-(4-chlorophenyl)acetyl)-4-methoxypyrrolidine-2-carboxamide] | > 100 | –
10 | CCNC(CCC1CC1)(c1ccncc1)c1ccc(F)c(NC(=O)[C@H]2C[C@@H](OC)CN2C(=O)Nc2ccc(Cl)cn2)c1 (stereo partly drawn) [Compound 77a, (2R,4R)-N1-(5-chloropyridin-2-yl)-N2-(5-((+)-3-cyclopropyl-1-(ethylamino)-1-(pyridin-4-yl)propyl)-2-fluorophenyl)-4-methoxypyrrolidine-1,2-dicarboxamide] | < 50 | –
11 | CCNC(CCC1CC1)(c1ccnc(C)c1)c1ccc(F)c(NC(=O)[C@H]2C[C@@H](OC)CN2C(=O)Nc2ccc(Cl)cn2)c1 (stereo partly drawn) [Compound 78a, (2R,4R)-N1-(5-chloropyridin-2-yl)-N2-(5-((+)-3-cyclopropyl-1-(ethylamino)-1-(2-methylpyridin-4-yl)propyl)-2-fluorophenyl)-4-methoxypyrrolidine-1,2-dicarboxamide] | < 50 | –
12 | CNC(CCC1CC1)(c1ccnc(C)c1)c1ccc(F)c(NC(=O)[C@H]2C[C@@H](OC)CN2C(=O)Nc2ccc(Cl)cn2)c1 (stereo partly drawn) [Compound 79a, (2R,4R)-N1-(5-chloropyridin-2-yl)-N2-(5-((+)-3-cyclopropyl-1-(methylamino)-1-(2-methylpyridin-4-yl)propyl)-2-fluorophenyl)-4-methoxypyrrolidine-1,2-dicarboxamide] | < 50 | –
13 | NC(CCC1CC1)(c1ccncc1)c1ccc(F)c(NC(=O)[C@H]2C[C@H]3C[C@H]3N2)c1 (stereo partly drawn) [Compound 80c, (1R,3R,5R)-N-(5-((+)-1-amino-3-cyclopropyl-1-(pyridin-4-yl)propyl)-2-fluorophenyl)-2-azabicyclo[3.1.0]hexane-3-carboxamide] | 50 to 100 | –
14 | CO[C@@H]1C[C@H](C(=O)Nc2cc(C(N)(CCC3CC3)c3ccncc3)ccc2F)N(C(=O)Nc2ccc(Cl)s2)C1 (stereo partly drawn) [Compound 81h, (2R,4R)-N2-(5-((−)-1-amino-3-cyclopropyl-1-(pyridin-4-yl)propyl)-2-fluorophenyl)-N1-(5-chlorothiophen-2-yl)-4-methoxypyrrolidine-1,2-dicarboxamide] | < 50 | –
15 | CO[C@@H]1C[C@H](C(=O)Nc2cc(C(N)(CCC3CC3)c3ccncc3)ccc2F)N(C(=O)c2ccc3cc[nH]c3c2)C1 (stereo partly drawn) [Compound 82a, (2R,4R)-N-(5-(-(+)-1-amino-3-cyclopropyl-1-(pyridin-4-yl)propyl)-2-fluorophenyl)-1-(1H-indole-6-carbonyl)-4-methoxypyrrolidine-2-carboxamide] | > 100 | –
16 | CO[C@@H]1C[C@H](C(=O)Nc2cc(C(N)(CCC3CC3)c3ccncc3)ccc2F)N(C(=O)c2ccc3c(Cl)c[nH]c3c2)C1 (stereo partly drawn) [Compound 83a, (2R,4R)-N-(5-((+)-1-amino-3-cyclopropyl-1-(pyridin-4-yl)propyl)-2-fluorophenyl)-1-(3-chloro-1H-indole-6-carbonyl)-4-methoxypyrrolidine-2-carboxamide] | > 100 | –
17 | CO[C@@H]1C[C@H](C(=O)Nc2cc(C(N)(CCC3CC3)c3ccncc3)ccc2F)N(C(=O)c2ccc(Cl)c(N)c2)C1 (stereo partly drawn) [Compound 84a, (2R,4R)-N-(5-((+)-1-amino-3-cyclopropyl-1-(pyridin-4-yl)propyl)-2-fluorophenyl)-1-(3-amino-4-chlorobenzoyl)-4-methoxypyrrolidine-2-carboxamide] | > 100 | –
18 | CO[C@@H]1C[C@H](C(=O)Nc2cc(C(N)(CCC3CC3)c3ccncc3)ccc2F)N(C(=O)c2ccc(F)c(N)c2)C1 (stereo partly drawn) [Compound 85a, (2R,4R)-N-(5-((+)-1-amino-3-cyclopropyl-1-(pyridin-4-yl)propyl)-2-fluorophenyl)-1-(3-amino-4-fluorobenzoyl)-4-methoxypyrrolidine-2-carboxamide] | > 100 | –
19 | CO[C@@H]1C[C@H](C(=O)Nc2cc(C(N)(CCC3CC3)c3ccncc3)ccc2F)N(C(=O)c2cccc(C#N)c2)C1 (stereo partly drawn) [Compound 86a, (2R,4R)-N-(5-((+)-1-amino-3-cyclopropyl-1-(pyridin-4-yl)propyl)-2-fluorophenyl)-1-(3-cyanobenzoyl)-4-methoxypyrrolidine-2-carboxamide] | > 100 | –
20 | CO[C@@H]1C[C@H](C(=O)Nc2cc([C@](CCC3CC3)(N[S@+]([O-])C(C)(C)C)c3ccncc3)ccc2F)N(S(=O)(=O)c2ccc3cc(Cl)ccc3c2)C1 [Compound 87b, (2R,4R)-1-(6-chloronaphthalen-2-ylsulfonyl)-N-(5-((S)-3-cyclopropyl-1-((R)-1,1-dimethylethylsulfinamido)-1-(pyridin-4-yl)propyl)-2-fluorophenyl)-4-methoxypyrrolidine-2-carboxamide] | > 100 | –
21 | NC(N)=NCCC[C@@H](N)C(=O)N[C@@H](CCCN=C(N)N)C(=O)N1CCC[C@H]1C(=O)N1C[C@H](O)C[C@H]1C(=O)NCC(=O)N[C@@H](Cc1cccs1)C(=O)N[C@@H](CO)C(=O)N1Cc2ccccc2C[C@@H]1C(=O)N1[C@H](C(=O)N[C@@H](CCCN=C(N)N)C(=O)O)C[C@@H]2CCCC[C@@H]21 [Icatibant] | – | treating HAE [2]: effective in treating HAE
22 | Cl.NCC1CCC(C(=O)N[C@@H](Cc2ccccc2)C(=O)Nc2ccc(CC(=O)O)cc2)CC1 (stereo partly shown) [PKSI-527] | – | joint swelling [3]: reduce joint swelling
23 | (2R,4R)-N1-(4-chlorophenyl)-N2-(5-((+)-3-cyclopropyl-1-((S)-1,1-dimethylethylsulfinamido)-1-(pyridin-2-yl)propyl)-2-fluorophenyl)-4-hydroxypyrrolidine-1,2-dicarboxamide [Compound 61b] | < 50 | –
24 | ecallantide [DX-88] | – | brain edema, infarct volume, and neurological deficits [4]: reduced brain edema, infarct volume, and neurological deficits; edema in patients with hereditary angioedema (HAE) [2]: alleviates edema
